Legend:
[1] = 101 kPa, Liquid
[2] = xn = mol fraction of the nth substance listed; conditions: 101 kPa, Liquid

CCCCn1cc[n+](C)c1.F[P-](F)(F)(F)(F)F [1-butyl-3-methylimidazolium hexafluorophosphate]
[1]
Conditions | mass density [kg/m3]
293.15 K | 1371.57
298.15 K | 1367.22
303.15 K | 1362.86
308.15 K | 1358.56
313.15 K | 1354.3
323.15 K | 1345.98
333.15 K | 1337.7
343.15 K | 1330.76

CCCCn1cc[n+](C)c1.F[B-](F)(F)F [1-butyl-3-methylimidazolium tetrafluoroborate]
[1]
Conditions | mass density [kg/m3]
293.15 K | 1195.71
298.15 K | 1192.07
303.15 K | 1188.37
308.15 K | 1184.72
313.15 K | 1181.43
323.15 K | 1174.49
333.15 K | 1166.89
343.15 K | 1159.97

CCCCn1cc[n+](C)c1.F[B-](F)(F)F [1-butyl-3-methylimidazolium tetrafluoroborate] + c1ccccc1
mass density [kg/m3], [2]
Conditions | 293.15 K | 298.15 K | 303.15 K | 308.15 K | 313.15 K | 323.15 K | 333.15 K | 343.15 K
x1 = 0.4871 | 1105.2 | 1101.28 | 1097.21 | 1093.23 | 1089.58 | 1081.9 | 1073.73 | 1065.72
x1 = 0.5499 | 1120.99 | 1117.14 | 1113.2 | 1109.3 | 1105.72 | 1098.23 | 1090.17 | 1082.51
x1 = 0.5999 | 1132.31 | 1128.5 | 1124.57 | 1120.71 | 1117.22 | 1109.81 | 1101.75 | 1094.35
x1 = 0.7001 | 1151.84 | 1148.13 | 1144.26 | 1140.47 | 1137.04 | 1129.83 | 1121.95 | 1114.7
x1 = 0.8 | 1168.73 | 1165.02 | 1161.24 | 1157.48 | 1154.13 | 1147.03 | 1139.28 | 1132.17
x1 = 0.899 | 1182.8 | 1179.15 | 1175.38 | 1171.67 | 1168.35 | 1161.36 | 1153.64 | 1146.64
x1 = 0.9498 | 1189.44 | 1185.85 | 1182.12 | 1178.45 | 1175.16 | 1168.19 | 1160.54 | 1153.58
x1 = 1 | 1195.71 | 1192.07 | 1188.37 | 1184.72 | 1181.43 | 1174.49 | 1166.89 | 1159.97

CC#N [acetonitrile]
[1]
Conditions | mass density [kg/m3]
293.15 K | 782.3
298.15 K | 776.93
303.15 K | 771.44
308.15 K | 765.97
313.15 K | 760.68
323.15 K | 749.73
333.15 K | 738.19
343.15 K | 726.94

CC#N [acetonitrile] + CCCCn1cc[n+](C)c1.F[B-](F)(F)F
[2], x2 = 0
Conditions | mass density [kg/m3]
293.15 K | 782.3
298.15 K | 776.93
303.15 K | 771.44
308.15 K | 765.97
313.15 K | 760.68
323.15 K | 749.73
333.15 K | 738.19
343.15 K | 726.94

CC#N [acetonitrile] + CCCCn1cc[n+](C)c1.F[P-](F)(F)(F)(F)F
[2], x2 = 0
Conditions | mass density [kg/m3]
293.15 K | 782.3
298.15 K | 776.93
303.15 K | 771.44
308.15 K | 765.97
313.15 K | 760.68
323.15 K | 749.73
333.15 K | 738.19
343.15 K | 726.94

c1ccccc1 [benzene]
[1]
Conditions | mass density [kg/m3]
293.15 K | 878.23
298.15 K | 873.11
303.15 K | 867.59
308.15 K | 862.21
313.15 K | 856.82
323.15 K | 846.05
333.15 K | 835.76
343.15 K | 824.89

c1ccccc1 [benzene] + CCCCn1cc[n+](C)c1.F[B-](F)(F)F
[2], x2 = 0
Conditions | mass density [kg/m3]
293.15 K | 878.23
298.15 K | 873.11
303.15 K | 867.59
308.15 K | 862.21
313.15 K | 856.82
323.15 K | 846.05
333.15 K | 835.76
343.15 K | 824.89

c1ccccc1 [benzene] + CCCCn1cc[n+](C)c1.F[P-](F)(F)(F)(F)F
[2], x2 = 0
Conditions | mass density [kg/m3]
293.15 K | 878.23
298.15 K | 873.11
303.15 K | 867.59
308.15 K | 862.21
313.15 K | 856.82
323.15 K | 846.05
333.15 K | 835.76
343.15 K | 824.89

CCCO [propan-1-ol]
[1]
Conditions | mass density [kg/m3]
293.15 K | 804.97
298.15 K | 801.01
303.15 K | 796.89
308.15 K | 792.83
313.15 K | 789.07
323.15 K | 780.74
333.15 K | 771.75
343.15 K | 762.86

CCCO [propan-1-ol] + CCCCn1cc[n+](C)c1.F[B-](F)(F)F
[2], x2 = 0
Conditions | mass density [kg/m3]
293.15 K | 804.97
298.15 K | 801.01
303.15 K | 796.89
308.15 K | 792.83
313.15 K | 789.07
323.15 K | 780.74
333.15 K | 771.75
343.15 K | 762.86
